In ChEMBL document CHEMBL4390652, “Design, biological evaluation and X-ray crystallography of nanomolar multifunctional ligands targeting simultaneously acetylcholinesterase and glycogen synthase kinase-3” (Eur J Med Chem, 2019):

Assays:
[1] = test system: Huh-7; assay: Cytotoxicity against human HuH7 cells assessed as growth inhibition incubated for 48 hrs by Hoechst 33342 staining based assay; type: cell-based; details: Huh-7, 48 h
[2] = test system: PC-3; assay: Cytotoxicity against human PC3 cells assessed as growth inhibition incubated for 48 hrs by Hoechst 33342 staining based assay; type: cell-based; details: PC-3, 48 h
[3] = target: Mitogen-activated protein kinase kinase kinase 5 (Homo sapiens) (UniProt Q99683); assay: Binding affinity to wild-type human partial length ASK1 (E648 to S964 residues) expressed in bacterial expression system assessed as residual binding level at 10 uM by Kinomescan method relative to control
[4] = target: Dual specificity protein kinase CLK3 (Homo sapiens) (UniProt P49761); assay: Binding affinity to wild-type human full length CLK3 (M1 to R490 residues) expressed in bacterial expression system assessed as residual binding level at 10 uM by Kinomescan method relative to control
[5] = target: Megakaryocyte-associated tyrosine-protein kinase (Homo sapiens) (UniProt P42679); assay: Binding affinity to wild-type human full length CTK (M43 to P508 residues) expressed in mammalian expression system assessed as residual binding level at 10 uM by Kinomescan method relative to control
[6] = test system: Epidermal growth factor receptor (Homo sapiens), P00533 [G719C]; assay: Binding affinity to human partial length EGFR G719C mutant (R669 to V1011 residues) expressed in bacterial expression system assessed as residual binding level at 10 uM by Kinomescan method relative to control
[7] = target: Ephrin type-A receptor 4 (Homo sapiens) (UniProt P54764); assay: Binding affinity to wild-type human partial length EPHA4 (T601 to R897 residues) expressed in bacterial expression system assessed as residual binding level at 10 uM by Kinomescan method relative to control
[8] = target: Mitogen-activated protein kinase 3 (Homo sapiens) (UniProt P27361); assay: Binding affinity to wild-type human full length ERK1 (M1 to P379 residues) expressed in bacterial expression system assessed as residual binding level at 10 uM by Kinomescan method relative to control
[9] = target: Tyrosine-protein kinase JAK1 (Homo sapiens) (UniProt P23458); assay: Binding affinity to wild-type human partial length JAK1 JH1 catalytic domain (V856 to K1154 residues) expressed in bacterial expression system assessed as residual binding level at 10 uM by Kinomescan method relative to control
[10] = target: Dual specificity mitogen-activated protein kinase kinase 4 (Homo sapiens) (UniProt P45985); assay: Binding affinity to wild-type human partial length MEK4 (S84 to D399 residues) expressed in mammalian expression system assessed as residual binding level at 10 uM by Kinomescan method relative to control
[11] = target: Maternal embryonic leucine zipper kinase (Homo sapiens) (UniProt Q14680); assay: Binding affinity to wild-type human full length MELK (M1 to V651 residues) expressed in bacterial expression system assessed as residual binding level at 10 uM by Kinomescan method relative to control
[12] = target: Mitogen-activated protein kinase kinase kinase 9 (Homo sapiens) (UniProt P80192); assay: Binding affinity to wild-type human partial length MLK1 (V88 to W426 residues) expressed in bacterial expression system assessed as residual binding level at 10 uM by Kinomescan method relative to control
[13] = target: Serine/threonine-protein kinase MRCK alpha (Homo sapiens) (UniProt Q5VT25); assay: Binding affinity to wild-type human partial length MRCKA (L57 to V418 residues) expressed in bacterial expression system assessed as residual binding level at 10 uM by Kinomescan method relative to control
[14] = target: Serine/threonine-protein kinase PAK 4 (Homo sapiens) (UniProt O96013); assay: Binding affinity to wild-type human partial length PAK4 (Q144 to R438 residues) expressed in bacterial expression system assessed as residual binding level at 10 uM by Kinomescan method relative to control
[15] = target: Serine/threonine-protein kinase PAK 5 (Homo sapiens) (UniProt Q9P286); assay: Binding affinity to wild-type human partial length PAK7 (Y400 to H719 residues) expressed in bacterial expression system assessed as residual binding level at 10 uM by Kinomescan method relative to control
[16] = test system: Phosphatidylinositol 4,5-bisphosphate 3-kinase catalytic subunit alpha isoform (Homo sapiens), P42336 [E545K]; assay: Binding affinity to human partial length PIK3CA E545K mutant (R108 to N1068 residues) expressed in mammalian expression system assessed as residual binding level at 10 uM by Kinomescan method relative to control
[17] = target: Serine/threonine-protein kinase pim-1 (Homo sapiens) (UniProt P11309); assay: Binding affinity to wild-type human partial length PIM1 (A15 to K313 residues) expressed in bacterial expression system assessed as residual binding level at 10 uM by Kinomescan method relative to control
[18] = target: Serine/threonine-protein kinase PknB (Mycobacterium tuberculosis) (UniProt P9WI81); assay: Binding affinity to wild-type Mycobacterium tuberculosis partial length PKNB (M1 to G279 residues) expressed in mammalian expression system assessed as residual binding level at 10 uM by Kinomescan method relative to control
[19] = target: Interferon-induced, double-stranded RNA-activated protein kinase (Homo sapiens) (UniProt P19525); assay: Binding affinity to wild-type human partial length PRKR (F247 to C551 residues) expressed in bacterial expression system assessed as residual binding level at 10 uM by Kinomescan method relative to control
[20] = target: cAMP-dependent protein kinase catalytic subunit PRKX (Homo sapiens) (UniProt P51817); assay: Binding affinity to wild-type human partial length PRKX (M1 to F358 residues) expressed in bacterial expression system assessed as residual binding level at 10 uM by Kinomescan method relative to control
[21] = test system: Proto-oncogene tyrosine-protein kinase receptor Ret (Homo sapiens), P07949 [V804L]; assay: Binding affinity to human partial length RET V804L mutant (E713 to D1014 residues) expressed in bacterial expression system assessed as residual binding level at 10 uM by Kinomescan method relative to control
[22] = target: Ribosomal protein S6 kinase alpha-2 (Homo sapiens) (UniProt Q15349); assay: Binding affinity to wild-type human partial length C-terminal RSK3 kinase domain 2 (V403 to K700 residues) expressed in bacterial expression system assessed as residual binding level at 10 uM by Kinomescan method relative to control
[23] = target: Ribosomal protein S6 kinase alpha-6 (Homo sapiens) (UniProt Q9UK32); assay: Binding affinity to wild-type human partial length C-terminal RSK4 kinase domain 2 (I401 to Y711 residues) expressed in bacterial expression system assessed as residual binding level at 10 uM by Kinomescan method relative to control
[24] = target: Non-receptor tyrosine-protein kinase TYK2 (Homo sapiens) (UniProt P29597); assay: Binding affinity to wild-type human partial length TYK2 JH2 pseudokinase domain (G556 to D888 residues) expressed in mammalian expression system assessed as residual binding level at 10 uM by Kinomescan method relative to control

Structure (SMILES): O=C(Nc1cc(-c2cn(CCNc3c4c(nc5ccccc35)CCCC4)nn2)ccn1)Nc1cccc2c1C1CCCCN1C2=O (racemic)
- IC50 [1]: 3 µM
- IC50 [2]: 5 µM
- Activity [3]: 80%
- Activity [4]: 100%
- Activity [5]: 100%
- Activity [6]: 78%
- Activity [7]: 100%
- Activity [8]: 57%
- Activity [9]: 84%
- Activity [10]: 100%
- Activity [11]: 14%
- Activity [12]: 38%
- Activity [13]: 97%
- Activity [14]: 14%
- Activity [15]: 8.9%
- Activity [16]: 78%
- Activity [17]: 25%
- Activity [18]: 3.3%
- Activity [19]: 45%
- Activity [20]: 15%
- Activity [21]: 16%
- Activity [22]: 74%
- Activity [23]: 57%
- Activity [24]: 19%
